Laboratory results reported in patent US20210261642A1, “SOLUBILITY OF GLP-1 PEPTIDE” (Novo Nordisk A/S, priority 2017, published 2021).

Test: Assay (I): Determination of Solubility (96-well plate, pH 3.0-11.0, organic solvent 0-70% w/w, UV absorption at 280 nm)
Type: physicochemical
Settings: Method 2 (precipitation), 5° C.
Protocol: Assay (I): Determination of Solubility
96-Well Plate Preparation
96-well plates containing target peptide in a solid form were prepared in one of two ways:
Method 1 (evaporation): Addition of 100 μl stock solution of said peptide at a concentration of 4-6 mg/ml to each well of a 96-well half area plate (150 μl well size). Subsequently the solvent was evaporated by applying a vacuum until the solvent was completely removed.
Method 2 (precipitation): Addition of a certain volume of a stock solution of said peptide containing to each well of a 96-well half area plate followed by the addition of a certain volume of concentrated phosphoric acid to obtain a pH of 4.6 followed by addition of a certain volume of ethanol resulting in a final ethanol concentration of 20% v/v. Subsequently the plate was stored at 4° C. for 1 h and then centrifuged at 4,000 rpm for 20 min. Finally the supernatant was removed. The concentration of the stock solution was chosen in a way that the final amount of peptide after supernatant removal was >0.4 mg per well.
In both cases the stock solution was prepared by adding de-ionized water to a certain amount of powder of said peptide followed by a stepwise addition of small amounts of a concentrated sodium hydroxide solution until said peptide was completely in solution.
To determine solubility of a target peptide at different pH and organic solvent concentrations, two different buffer systems were used in independent experiments to cover the whole range from pH 3.0 to pH 11.0. Buffer system 1 covers pH 3.0-7.5 and buffer system 2 covers pH 7.5-11.0. For each buffer system 96 different solvent compositions were premixed in the following way: • 1. A low pH buffer (adjusted to either pH 3.0 or pH 7.5) and a high pH buffer (adjusted to either pH 7.5 or pH 11.0) were mixed at 8 different ratios to obtain values between pH 3.0 and pH 7.5 or pH 7.5 and pH 11.0, respectively. The total volume after mixing was 300 μl. • 2. 12 different amounts of organic solvent were then added to these buffers to obtain organic solvent (e.g. ethanol) concentrations between 0 and 70% w/w. • 3. Water was then added to obtain a total weight of 1.0 g of solvent in each well.
After preparing the 96 different solvent systems, 100 μl of each system was transferred to the 96-well plate containing the solid form of the target peptide (prepared as described in the section “96-well plate preparation”). The plate was then stored at a given temperature (between 5° C. and 70° C.) for a given time on a rotating shaker set to 400 rpm. At regular time intervals the plate was centrifuged (4,000 rpm for 10 min) and a 10 μl sample was taken from each well. The samples were then analysed by UV absorption at 280 nm for peptide quantification. Peptide concentration results are given as UV absorption at 280 nm of the sample subtracted UV absorption at 280 nm of a well comprising 10 μl water.
The buffers used were as follows: • Buffer system 1 (for the pH range from pH 3.0-7.5)
• Buffer system 2 (for the pH ranae from pH 7.5-11.0)
Solubility of liraglutide was determined using Assay (I) described herein. Liraglutide was prepared using Method 1 (evaporation) or Method 2 (precipitation) as described in subsection “96-well plate preparation”.

Compound: CCCCCCCCCCCCCCCC(=O)N[C@@H](CCC(=O)NCCCC[C@H](NC(=O)[C@H](C)NC(=O)[C@H](C)NC(=O)[C@H](CCC(N)=O)NC(=O)CNC(=O)[C@H](CCC(=O)O)NC(=O)[C@H](CC(C)C)NC(=O)[C@H](Cc1ccc(O)cc1)NC(=O)[C@H](CO)NC(=O)[C@H](CO)NC(=O)[C@@H](NC(=O)[C@H](CC(=O)O)NC(=O)[C@H](CO)NC(=O)[C@@H](NC(=O)[C@H](Cc1ccccc1)NC(=O)[C@@H](NC(=O)CNC(=O)[C@H](CCC(=O)O)NC(=O)[C@H](C)NC(=O)[C@@H](N)Cc1cnc[nH]1)[C@@H](C)O)[C@@H](C)O)C(C)C)C(=O)N[C@@H](CCC(=O)O)C(=O)N[C@@H](Cc1ccccc1)C(=O)N[C@H](C(=O)N[C@@H](C)C(=O)N[C@@H](Cc1c[nH]c2ccccc12)C(=O)N[C@@H](CC(C)C)C(=O)N[C@H](C(=O)N[C@@H](CCCNC(=N)N)C(=O)NCC(=O)N[C@@H](CCCNC(=N)N)C(=O)NCC(=O)O)C(C)C)[C@@H](C)CC)C(=O)O [liraglutide, Arg34,Lys26-(N-epsilon-(gamma-L-glutamyl(N-alfa-hexadecanoyl)))-GLP-1(7-37)]
- GLP-1 peptide concentration (MeCN 57.3% w/w, pH 9.50, 5 min, before removal of outliers): 0.5 mg/mL
- GLP-1 peptide concentration (MeCN 57.3% w/w, pH 9.50, 180 min, after removal of outliers): >4.0 mg/mL
- GLP-1 peptide concentration (MeCN 57.3% w/w, pH 9.50, 180 min, before removal of outliers): >4.0 mg/mL
- GLP-1 peptide concentration (MeCN 57.3% w/w, pH 9.50, 24 h, after removal of outliers): 2.5 mg/mL
- GLP-1 peptide concentration (MeCN 57.3% w/w, pH 9.50, 24 h, before removal of outliers): 2.5 mg/mL
- GLP-1 peptide concentration (MeCN 57.3% w/w, pH 10.00, 5 min, after removal of outliers): 0.4 mg/mL
- GLP-1 peptide concentration (MeCN 57.3% w/w, pH 10.00, 5 min, before removal of outliers): 0.4 mg/mL
- GLP-1 peptide concentration (MeCN 57.3% w/w, pH 10.00, 180 min, after removal of outliers): >4.0 mg/mL
- GLP-1 peptide concentration (MeCN 57.3% w/w, pH 10.00, 180 min, before removal of outliers): >4.0 mg/mL
- GLP-1 peptide concentration (MeCN 57.3% w/w, pH 10.00, 24 h, after removal of outliers): 1.1 mg/mL
- GLP-1 peptide concentration (MeCN 57.3% w/w, pH 10.00, 24 h, before removal of outliers): 1.1 mg/mL
- GLP-1 peptide concentration (MeCN 57.3% w/w, pH 10.50, 5 min, after removal of outliers): 0.5 mg/mL
- GLP-1 peptide concentration (MeCN 57.3% w/w, pH 10.50, 5 min, before removal of outliers): 0.5 mg/mL
- GLP-1 peptide concentration (MeCN 57.3% w/w, pH 10.50, 180 min, after removal of outliers): >4.0 mg/mL
- GLP-1 peptide concentration (MeCN 57.3% w/w, pH 10.50, 180 min, before removal of outliers): >4.0 mg/mL
- GLP-1 peptide concentration (MeCN 57.3% w/w, pH 10.50, 24 h, after removal of outliers): 1.7 mg/mL
- GLP-1 peptide concentration (MeCN 57.3% w/w, pH 10.50, 24 h, before removal of outliers): 1.7 mg/mL
- GLP-1 peptide concentration (MeCN 57.3% w/w, pH 11.00, 5 min, after removal of outliers): 0.5 mg/mL
- GLP-1 peptide concentration (MeCN 57.3% w/w, pH 11.00, 5 min, before removal of outliers): 0.5 mg/mL
- GLP-1 peptide concentration (MeCN 57.3% w/w, pH 11.00, 180 min, after removal of outliers): >4.0 mg/mL
- GLP-1 peptide concentration (MeCN 57.3% w/w, pH 11.00, 180 min, before removal of outliers): >4.0 mg/mL
- GLP-1 peptide concentration (MeCN 57.3% w/w, pH 11.00, 24 h, after removal of outliers): 3.6 mg/mL
- GLP-1 peptide concentration (MeCN 57.3% w/w, pH 11.00, 24 h, before removal of outliers): 3.6 mg/mL
- GLP-1 peptide concentration (MeCN 63.6% w/w, pH 7.50, 5 min, before removal of outliers): 0.4 mg/mL
- GLP-1 peptide concentration (MeCN 63.6% w/w, pH 7.50, 180 min, before removal of outliers): 1.0 mg/mL
- GLP-1 peptide concentration (MeCN 63.6% w/w, pH 7.50, 24 h, before removal of outliers): 2.4 mg/mL
- GLP-1 peptide concentration (MeCN 63.6% w/w, pH 8.00, 5 min, after removal of outliers): 0.5 mg/mL
- GLP-1 peptide concentration (MeCN 63.6% w/w, pH 8.00, 5 min, before removal of outliers): 0.5 mg/mL
- GLP-1 peptide concentration (MeCN 63.6% w/w, pH 8.00, 180 min, after removal of outliers): 1.2 mg/mL
- GLP-1 peptide concentration (MeCN 63.6% w/w, pH 8.00, 180 min, before removal of outliers): 1.2 mg/mL
- GLP-1 peptide concentration (MeCN 63.6% w/w, pH 8.00, 24 h, after removal of outliers): 3.2 mg/mL
- GLP-1 peptide concentration (MeCN 63.6% w/w, pH 8.00, 24 h, before removal of outliers): 3.2 mg/mL
- GLP-1 peptide concentration (MeCN 63.6% w/w, pH 8.50, 5 min, after removal of outliers): 0.5 mg/mL
- GLP-1 peptide concentration (MeCN 63.6% w/w, pH 8.50, 5 min, before removal of outliers): 0.5 mg/mL
- GLP-1 peptide concentration (MeCN 63.6% w/w, pH 8.50, 180 min, after removal of outliers): 3.1 mg/mL
- GLP-1 peptide concentration (MeCN 63.6% w/w, pH 8.50, 180 min, before removal of outliers): 3.1 mg/mL
- GLP-1 peptide concentration (MeCN 63.6% w/w, pH 8.50, 24 h, after removal of outliers): 3.1 mg/mL
- GLP-1 peptide concentration (MeCN 63.6% w/w, pH 8.50, 24 h, before removal of outliers): 3.1 mg/mL
- GLP-1 peptide concentration (MeCN 63.6% w/w, pH 9.00, 5 min, after removal of outliers): 0.5 mg/mL
- GLP-1 peptide concentration (MeCN 63.6% w/w, pH 9.00, 5 min, before removal of outliers): 0.5 mg/mL
- GLP-1 peptide concentration (MeCN 63.6% w/w, pH 9.00, 180 min, after removal of outliers): 1.7 mg/mL
- GLP-1 peptide concentration (MeCN 63.6% w/w, pH 9.00, 180 min, before removal of outliers): 1.7 mg/mL
- GLP-1 peptide concentration (MeCN 63.6% w/w, pH 9.00, 24 h, after removal of outliers): >4.0 mg/mL
- GLP-1 peptide concentration (MeCN 63.6% w/w, pH 9.00, 24 h, before removal of outliers): >4.0 mg/mL
- GLP-1 peptide concentration (MeCN 63.6% w/w, pH 9.50, 5 min, after removal of outliers): 0.6 mg/mL
- GLP-1 peptide concentration (MeCN 63.6% w/w, pH 9.50, 5 min, before removal of outliers): 0.6 mg/mL
- GLP-1 peptide concentration (MeCN 63.6% w/w, pH 9.50, 180 min, after removal of outliers): 2.9 mg/mL
- GLP-1 peptide concentration (MeCN 63.6% w/w, pH 9.50, 180 min, before removal of outliers): 2.9 mg/mL
- GLP-1 peptide concentration (MeCN 63.6% w/w, pH 9.50, 24 h, after removal of outliers): 1.2 mg/mL
- GLP-1 peptide concentration (MeCN 63.6% w/w, pH 9.50, 24 h, before removal of outliers): 1.2 mg/mL
- GLP-1 peptide concentration (MeCN 63.6% w/w, pH 10.00, 5 min, after removal of outliers): 0.4 mg/mL
